The record followed here is patent US20220235043A1, “SUBSTITUTED SULFONAMIDE PYRROLOPYRIDINES AS JAK INHIBITORS” (ACLARIS THERAPEUTICS, INC., priority 2019, published 2022).

The subject of assay [1] is IL-12 stimulated STAT4 phosphorylation on Tyr693 (JAK2/TYK2). Description: JAK2/TYK2 cellular target modulation: IL-12 stimulated phospho-STAT4 in human PBMC. Format: cell-based. The note with it: IL-12 1.7 ng/ml, read-out: IL12-STAT4 IC50. In short, it runs like this:
(§1)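 Thawed human PBMC (200,000/well) preincubated with compound 1 h at 37°C, then stimulated with IL-12 1.7 ng/ml for 25 min, IFNγ 10 ng/ml for 10 min, or IL-2 25 ng/ml for 5 min. Lysate phospho-STAT4 Tyr693 and phospho-STAT5 Tyr694 read by MSD; phospho-STAT1 Tyr701 by sandwich ELISA.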

Assay [2] concerns IFNγ stimulated STAT1 phosphorylation on Tyr701 (JAK1/2). Nature of the assay: JAK1/2 cellular target modulation: IFNγ stimulated phospho-STAT1 in human PBMC. Particulars: IFNγ 10 ng/ml, read-out: Infγ-STAT1 IC50. Format: cell-based. The essentials: as §1
The target of assay [3] is T1, Tyk-2 (Homo sapiens, UniProt P29597).
T1 construct: purchased Thermo Fisher Scientific (SelectScreen service)
T1 sequence (P29597 whole entry): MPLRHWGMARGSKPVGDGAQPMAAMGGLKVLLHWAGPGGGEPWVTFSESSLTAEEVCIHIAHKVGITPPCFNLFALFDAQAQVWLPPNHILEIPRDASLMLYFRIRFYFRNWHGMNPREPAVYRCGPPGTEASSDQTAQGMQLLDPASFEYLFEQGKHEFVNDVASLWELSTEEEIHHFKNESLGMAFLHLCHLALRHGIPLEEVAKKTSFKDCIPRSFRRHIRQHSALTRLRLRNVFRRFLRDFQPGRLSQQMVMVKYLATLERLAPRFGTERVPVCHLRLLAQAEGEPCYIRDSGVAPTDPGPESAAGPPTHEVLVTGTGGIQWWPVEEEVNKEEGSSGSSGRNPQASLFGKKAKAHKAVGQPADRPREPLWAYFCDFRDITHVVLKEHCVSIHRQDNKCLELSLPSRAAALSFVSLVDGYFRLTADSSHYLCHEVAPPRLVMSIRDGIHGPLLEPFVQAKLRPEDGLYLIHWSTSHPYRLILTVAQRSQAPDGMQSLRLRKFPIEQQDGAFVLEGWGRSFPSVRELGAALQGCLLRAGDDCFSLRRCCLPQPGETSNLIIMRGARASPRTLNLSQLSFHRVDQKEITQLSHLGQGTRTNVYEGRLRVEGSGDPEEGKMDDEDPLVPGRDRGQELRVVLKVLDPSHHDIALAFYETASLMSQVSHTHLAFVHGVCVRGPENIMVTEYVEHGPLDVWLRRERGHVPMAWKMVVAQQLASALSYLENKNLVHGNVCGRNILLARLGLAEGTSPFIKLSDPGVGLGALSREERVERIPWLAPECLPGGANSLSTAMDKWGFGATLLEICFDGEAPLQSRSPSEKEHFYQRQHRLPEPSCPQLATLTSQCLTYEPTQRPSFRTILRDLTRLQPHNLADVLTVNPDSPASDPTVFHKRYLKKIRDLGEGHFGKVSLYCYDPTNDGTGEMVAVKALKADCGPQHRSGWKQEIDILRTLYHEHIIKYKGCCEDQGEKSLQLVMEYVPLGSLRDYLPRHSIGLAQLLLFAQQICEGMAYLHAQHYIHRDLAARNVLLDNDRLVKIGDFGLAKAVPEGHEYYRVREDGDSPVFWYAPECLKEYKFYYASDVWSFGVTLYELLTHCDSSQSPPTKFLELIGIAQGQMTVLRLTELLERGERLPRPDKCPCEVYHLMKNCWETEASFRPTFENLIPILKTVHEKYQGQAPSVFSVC
Description: Tyk-2 enzyme activity assay (Thermo Fisher Selectscreen, Z-lyte). Format: biochemical. The note with it: read-out: Tyk-2 Inhibition IC50. In short, it runs like this:
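Z-lyte FRET assay with 3.75-15 ng TYK2 and 2 μM Tyr 03 peptide in 50 mM HEPES pH 7.0, 10 mM MgCl2, 1 mM EGTA, 0.01% BRIJ-35. Reaction ran one hour before development reagent was added. Compounds were tested in an 11-point dose-response; IC50 came from a 4-parameter logistic fit of emission ratio, normalised to no-enzyme and 2% DMSO vehicle controls.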

The test system of assay [4] is IL-2 stimulated STAT5 phosphorylation on Tyr694 (JAK1/3). Nature of the assay: JAK1/3 cellular target modulation: IL-2 stimulated phospho-STAT5 in human PBMC. The assay is classed as cell-based. The note with it: IL-2 25 ng/ml, read-out: IL2-STAT5 IC50. The essentials:
as §1

Assay [5] addresses T2, JAK3 (a.a. 781-1124) (Homo sapiens, UniProt P52333).
T2 construct: JAK3 (a.a. 781-1124, ThermoFisher); purchased ThermoFisher
Nature of the assay: JAK3 enzyme activity assay (SRCtide phosphorylation, Caliper). The assay is classed as biochemical. Particulars: 1 uM ATP; read-out: JAK3 Inhibition IC50. The essentials: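 Kinase reactions used 2.5 nM JAK3 (aa 781-1124), 1 μM FAM-SRCtide and 1 uM ATP in HEPES pH 7.5, MgCl2, BSA, Tween-20, 2% DMSO. Incubation was 40 min at room temperature, stopped with EDTA. Phospho/unphospho peptide separated by Caliper mobility shift; IC50 from 11-point 3-fold 4-parameter fits.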

Assay [6] deals with T3, JAK2 (Homo sapiens, UniProt O60674).
T3 construct: purchased Thermo Fisher Scientific (SelectScreen service)
T3 sequence (O60674 whole entry): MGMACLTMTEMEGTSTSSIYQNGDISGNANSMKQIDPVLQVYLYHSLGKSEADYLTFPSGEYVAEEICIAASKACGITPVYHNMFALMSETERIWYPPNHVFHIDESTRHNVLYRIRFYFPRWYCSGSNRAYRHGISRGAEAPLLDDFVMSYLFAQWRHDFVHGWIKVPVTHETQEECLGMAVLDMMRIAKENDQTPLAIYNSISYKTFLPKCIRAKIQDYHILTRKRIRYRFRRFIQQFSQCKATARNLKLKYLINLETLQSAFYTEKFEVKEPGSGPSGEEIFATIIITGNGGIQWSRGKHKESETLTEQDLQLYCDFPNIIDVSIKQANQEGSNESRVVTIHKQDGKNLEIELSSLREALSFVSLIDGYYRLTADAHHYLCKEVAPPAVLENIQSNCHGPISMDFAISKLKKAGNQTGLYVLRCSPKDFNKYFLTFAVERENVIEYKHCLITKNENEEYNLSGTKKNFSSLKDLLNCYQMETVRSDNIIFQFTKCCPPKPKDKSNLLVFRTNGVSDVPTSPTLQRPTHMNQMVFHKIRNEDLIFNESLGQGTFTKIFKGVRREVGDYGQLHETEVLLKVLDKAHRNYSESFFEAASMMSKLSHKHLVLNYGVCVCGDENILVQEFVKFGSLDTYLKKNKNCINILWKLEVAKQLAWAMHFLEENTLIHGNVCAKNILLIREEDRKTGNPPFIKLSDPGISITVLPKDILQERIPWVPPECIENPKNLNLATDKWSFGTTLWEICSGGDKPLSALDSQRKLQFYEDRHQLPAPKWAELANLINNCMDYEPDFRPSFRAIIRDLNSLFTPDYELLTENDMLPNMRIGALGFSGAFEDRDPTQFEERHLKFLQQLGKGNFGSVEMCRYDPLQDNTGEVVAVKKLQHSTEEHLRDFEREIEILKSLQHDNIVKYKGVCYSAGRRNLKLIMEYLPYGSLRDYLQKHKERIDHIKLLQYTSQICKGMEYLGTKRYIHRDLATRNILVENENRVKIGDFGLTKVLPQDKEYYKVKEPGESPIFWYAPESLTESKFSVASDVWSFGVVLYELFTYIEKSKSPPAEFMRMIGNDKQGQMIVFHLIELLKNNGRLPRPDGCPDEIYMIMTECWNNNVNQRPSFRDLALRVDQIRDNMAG
Nature of the assay: JAK2 enzyme activity assay (Thermo Fisher Selectscreen, Z-lyte). The assay is classed as biochemical. Particulars: read-out: JAK2 Inhibition IC50. The essentials:
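Z-lyte FRET kinase format: 0.12-0.5 ng JAK2 with 2 μM Tyr 06 peptide in HEPES pH 7.5, 10 mM MgCl2, 1 h reaction, then development reagent. Compounds were run as 11-point dose-response, 2% DMSO vehicle. IC50 came from 4-parameter logistic fit of emission ratio.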

For assay [7], the target named is T4, JAK1 (Homo sapiens, UniProt P23458).
T4 construct: purchased Thermo Fisher Scientific (SelectScreen service)
T4 sequence (P23458 whole entry): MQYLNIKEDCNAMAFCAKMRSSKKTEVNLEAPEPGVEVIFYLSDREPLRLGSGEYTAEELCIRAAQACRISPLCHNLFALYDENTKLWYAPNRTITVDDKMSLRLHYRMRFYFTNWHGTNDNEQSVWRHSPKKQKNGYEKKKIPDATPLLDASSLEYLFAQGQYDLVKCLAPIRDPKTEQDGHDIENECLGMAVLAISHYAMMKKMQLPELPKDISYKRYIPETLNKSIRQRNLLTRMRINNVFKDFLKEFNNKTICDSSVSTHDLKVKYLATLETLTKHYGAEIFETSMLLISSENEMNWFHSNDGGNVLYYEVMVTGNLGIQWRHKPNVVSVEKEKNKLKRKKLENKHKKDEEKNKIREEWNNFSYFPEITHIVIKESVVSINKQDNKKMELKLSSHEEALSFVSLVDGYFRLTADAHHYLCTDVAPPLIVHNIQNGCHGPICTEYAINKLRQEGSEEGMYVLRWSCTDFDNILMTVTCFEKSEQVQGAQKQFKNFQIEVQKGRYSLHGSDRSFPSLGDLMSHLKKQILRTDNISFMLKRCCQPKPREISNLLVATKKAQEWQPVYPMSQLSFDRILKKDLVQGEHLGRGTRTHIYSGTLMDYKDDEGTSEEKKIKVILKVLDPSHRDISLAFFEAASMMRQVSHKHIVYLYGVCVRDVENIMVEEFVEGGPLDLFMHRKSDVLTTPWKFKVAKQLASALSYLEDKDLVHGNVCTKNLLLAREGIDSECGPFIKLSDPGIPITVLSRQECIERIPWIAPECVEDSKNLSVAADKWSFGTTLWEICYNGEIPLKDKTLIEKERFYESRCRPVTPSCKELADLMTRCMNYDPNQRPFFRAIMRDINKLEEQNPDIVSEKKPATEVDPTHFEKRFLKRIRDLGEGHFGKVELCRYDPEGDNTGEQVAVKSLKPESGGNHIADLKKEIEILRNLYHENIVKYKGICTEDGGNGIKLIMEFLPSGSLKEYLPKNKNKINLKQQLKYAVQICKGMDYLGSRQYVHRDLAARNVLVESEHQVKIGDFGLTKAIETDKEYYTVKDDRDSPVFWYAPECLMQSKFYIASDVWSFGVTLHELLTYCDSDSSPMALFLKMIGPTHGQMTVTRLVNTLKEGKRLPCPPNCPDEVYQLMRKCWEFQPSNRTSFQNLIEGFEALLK
Description: JAK1 enzyme activity assay (Thermo Fisher Selectscreen, Z-lyte). Format: biochemical. Particulars: read-out: JAK1 Inhibition IC50. The essentials:
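Z-lyte FRET kinase assay with 21.2-91.5 ng JAK1 and 2 μM Tyr 06 peptide in 50 mM HEPES pH 7.0, 10 mM MgCl2, 1 h reaction before development reagent. Background without enzyme, uninhibited signal with 2% DMSO vehicle; 11-point dose-response, IC50 from 4-parameter logistic fit of emission ratio.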

T2 sequence (P52333 781-1124): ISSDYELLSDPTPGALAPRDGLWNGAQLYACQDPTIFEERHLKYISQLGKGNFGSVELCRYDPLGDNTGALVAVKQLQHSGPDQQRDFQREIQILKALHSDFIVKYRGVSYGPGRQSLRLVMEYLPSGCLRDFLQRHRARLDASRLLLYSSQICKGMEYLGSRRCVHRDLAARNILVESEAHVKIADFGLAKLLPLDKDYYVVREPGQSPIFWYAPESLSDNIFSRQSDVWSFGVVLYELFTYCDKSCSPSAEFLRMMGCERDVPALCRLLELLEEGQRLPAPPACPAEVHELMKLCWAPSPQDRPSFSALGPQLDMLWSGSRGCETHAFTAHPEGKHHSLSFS

As usually defined, the IC50 is the midpoint of a concentration-inhibition curve. With `CCOC(=O)c1cnc2[nH]ccc2c1N[C@H]1C[C@@H](NS(=O)(=O)c2cc(C#N)ccn2)C1` [Example 5, ethyl 4-(((1s,3s)-3-((4-cyanopyridine)-2-sulfonamido)cyclobutyl)amino)-1H-pyrrolo[2,3-b]pyridine-5-carboxylate], the IC50 is more than 1000 nM in assay [1]; 100 to 1000 nM in assay [2]; 10 to 100 nM in assay [3]; 100 to 1000 nM in assay [4]; 10 to 100 nM in assay [5]; 10 to 100 nM in assay [6]. Further, the IC50 in assay [7] was not above 10 nM.
For the compound `N#Cc1cccc(S(=O)(=O)N[C@H]2C[C@@H](Nc3c(-c4nncs4)cnc4[nH]ccc34)C2)c1` [Example 78, N-((1s,3s)-3-((5-(1,3,4-thiadiazol-2-yl)-1H-pyrrolo[2,3-b]pyridin-4-yl)amino)cyclobutyl)-3-cyanobenzenesulfonamide], the IC50 in assay [1] was more than 1000 nM; in assay [2] it was 100 to 1000 nM; in assay [3], not above 10 nM; in assay [4] it was not above 100 nM; in assay [5], 10 to 100 nM; in assay [6], not above 10 nM. Moreover, the IC50 in assay [7] is not above 10 nM.
With `CCCS(=O)(=O)N[C@H]1C[C@@H](Nc2c(-c3nnc(C)s3)cnc3[nH]ccc23)C1` [Example 76, N-((1s,3s)-3-((5-(5-methyl-1,3,4-thiadiazol-2-yl)-1H-pyrrolo[2,3-b]pyridin-4-yl)amino)cyclobutyl)propane-1-sulfonamide], the IC50 is more than 1000 nM in assay [1]; 100 to 1000 nM in assay [2]; 10 to 100 nM in assay [3]; 100 to 1000 nM in assay [4]; 10 to 100 nM in assay [5]; 10 to 100 nM in assay [6]. For the same compound, the IC50 in assay [7] fell in the range of 10 to 100 nM.
